# Measurements as given in patent US3976771A, “Glycylglycine amide preparations and method of use antiarrhythmic” (priority 1972, dated 1976).
# Entries after “also recorded” stand apart in the source; their conditions may differ.
# Experiments:
# [1] = system: ventricular arrhythmias produced by coronary artery ligation; test: Ventricular arrhythmias produced by coronary artery ligation in unanesthetized dogs; type: in vivo; details: two dogs, constant i.v. infusion 0.5 mg/kg/min
# Description: The effects of intravenous infusion of GEA968 was also studies on two unanesthesized dogs with ventricular arrhythmias produced by coronary artery ligation, essentially following the procedure of A. S. Harris, Circulation, Vol. I, page 1318 (1950). The two dogs with well-developed arrhythmias received a constant infusion of 0.5 mg/kg/min. of GEA968.
# [2] = system: aconitine-induced arrhythmias; test: Protection against aconitine-induced arrhythmias in the guinea-pig; type: in vivo; details: for Dose of aconitine necessary for development of ECG-changes indicating Asystolie / Dose of aconitine necessary for development of ECG-changes indicating Fibrillation / Dose of aconitine necessary for development of ECG-changes indicating Tachycardia: 15 min before aconitine infusion, mean ± standard error
# Description: The procedure used by Vargaftig et al. (Eur. J. Pharmacol. 6, 49, 1969) was slightly modified; Guinea-pigs of both sexes (250-400 g) were anaesthetized with uretane (1 g/kg bodyweight, i.p.). A plastic tube was introduced into the trachea and a thin plastic catheter into the jugular vein. Respiration was supported by means of a Harward Rodent Respirator 680. Aconitine was infused i.v. at a rate of 3 μg/min by means of a Palmer slow injection apparatus. The ECG (lead II) was continuously monitored. The amount of aconitine (μg/kg bodyweight) injected to induce ventricular tachycardia, fibrillation and asystolie was calculated. Test compounds were given i.p. with different time intervals between injection of drug and start of aconitine infusion.
# [3] = system: ventricular fibrillation upon exposure to chloroform vapor; test: Protection against chloroform-induced ventricular fibrillation in mice; type: in vivo
# Description: The method used in mice was essentially the same as described by Lawson (J. Pham. Exp. Therap. 160, 22 (1968). Male mice (NMRI, 17-25 g) were used. Unanesthetized, untreated mice show cardiac ventricular fibrillation upon exposure to chloroform vapor. The ventricular fibrillation is abolished if the animals are pretreated with appropriate doses of known antiarrhythmic agents before exposure to chloroform.
# For determination of antiarrhythmic effect groups of 10 mice were pretreated by the oral route with varying sublethal doses of compound 10 to 300 min. respectively before being placed individually in a beaker containing chloroform. The mouse was removed from the beaker at the time of respiratory arrest and the thorax opened. Examination of ventricular fibrillation was made by means of ECG-recordings (lead II). The effect of the compound was expressed as the number of animals in per cent which were protected from fibrillation.
# [4] = system: contractility of the heart; test: Qualitative observation of side effects in the animal tests; type: in vivo; details: preliminary indication
# Description: However, it was qualitatively observed that the side effects of the compounds of the present invention appeared to be less significant.
# [5] = system: mice; test: Acute oral toxicity in mice; type: in vivo; details: deaths during 7 days
# Description: For determination of acute toxicity groups of 10 mice were treated orally with varying doses of compound observing the incidence of death, during a 7 days period. LD50 and LD 0.1 were calculated by means of a logarithmic-probit graph paper.
# [6] = due to low levels of the drug in the blood; cited from earlier work
# [7] = 100 mg/kg p.o., 10 min between pretreatment and chloroform vapor
# [8] = 100 mg/kg p.o., 60 min between pretreatment and chloroform vapor
SMILES,Dose of aconitine necessary for development of ECG-changes indicating Asystolie ([2]; 25 mg/kg i.p.) [μg/kg bodyweight],Dose of aconitine necessary for development of ECG-changes indicating Fibrillation ([2]; 25 mg/kg i.p.) [μg/kg bodyweight],Dose of aconitine necessary for development of ECG-changes indicating Tachycardia ([2]; 25 mg/kg i.p.) [μg/kg bodyweight],Dose of aconitine necessary for development of ECG-changes indicating Asystolie ([2]; 100 mg/kg i.p.) [μg/kg bodyweight],Dose of aconitine necessary for development of ECG-changes indicating Fibrillation ([2]; 100 mg/kg i.p.) [μg/kg bodyweight],Dose of aconitine necessary for development of ECG-changes indicating Tachycardia ([2]; 100 mg/kg i.p.) [μg/kg bodyweight],"Percentage animals protected from fibrillation [3, 7] [per cent]","Percentage animals protected from fibrillation [3, 8] [per cent]","Percentage animals protected from fibrillation ([3]; 250 mg/kg p.o., 10 min) [per cent]","Percentage animals protected from fibrillation ([3]; 250 mg/kg p.o., 60 min) [per cent]",LD 0.1 (the dose which kills 0.1 % of the animals) [5] [mg/kg bodyweight],Toxicity LD50 p.o. [5] [mg/kg bodyweight],"Percentage animals protected from fibrillation ([3]; 500 mg/kg p.o., 10 min) [per cent]","Percentage animals protected from fibrillation ([3]; 500 mg/kg p.o., 60 min) [per cent]",further results
"CCN(CC)CC(=O)NCC(=O)Nc1c(C)cccc1C [GEA 968, N,N-diethylglycylglycine-2,6-xylidide]",210 ± 12,155 ± 10,91 ± 6,632 ± 132,356 ± 32,225 ± 35,70,65,90,90,250,535,–,–,"Duration of suppression of arrhythmias [1]: unusually long duration; Effect on ventricular arrhythmias [1]: suppression of the arrhythmias; Dose of aconitine necessary for development of ECG-changes indicating Asystolie ([2]; 50 mg/kg i.p.): 378 ± 33 μg/kg bodyweight; Dose of aconitine necessary for development of ECG-changes indicating Fibrillation ([2]; 50 mg/kg i.p.): 284 ± 25 μg/kg bodyweight; Dose of aconitine necessary for development of ECG-changes indicating Tachycardia ([2]; 50 mg/kg i.p.): 161 ± 15 μg/kg bodyweight; Antiarrhythmic effect in the aconitine test (in words) ([2]; guinea-pig, i.p.): markedly potent; also recorded: good antiarrhythmic effects; Percentage animals protected from fibrillation ([3]; 54 mg/kg p.o. (one tenth of LD50), 10 min): 45 per cent; Percentage animals protected from fibrillation ([3]; 54 mg/kg p.o. (one tenth of LD50), 60 min): 55 per cent; Percentage animals protected from fibrillation ([3]; 54 mg/kg p.o. (one tenth of LD50), 300 min): 15 per cent; Percentage animals protected from fibrillation ([3]; 100 mg/kg p.o., 300 min between pretreatment and chloroform vapor): 45 per cent; Percentage animals protected from fibrillation ([3]; 250 mg/kg p.o., 300 min): 70 per cent; Antiarrhythmic effect in the chloroform test (in words) ([3]; mice, p.o.): good antiarrhythmic effects; Duration of antiarrhythmic effectiveness (in words) ([3]; mouse, in vivo): especially significant; Effect on contractility of the heart (qualitative) [4]: improving the contractility of the heart"
"CCN(CC)CC(=O)NCC(=O)NC(C)(C)c1ccccc1 [GEA 980, N^3,N^3 -diethyl-N^1 -(α,α-dimethylbenzyl) glycylglycine amide]",–,–,–,–,–,–,11,10,–,–,–,> 500,65,0,"Percentage animals protected from fibrillation ([3]; 300 mg/kg p.o., 10 min): 25 per cent; Percentage animals protected from fibrillation ([3]; 300 mg/kg p.o., 60 min): 10 per cent"
"CCN(CC)CC(=O)N[C@@H](C)C(=O)NC(C)(C)c1ccccc1 [GEA 981, N^3,N^3 -diethyl-N^1 -(α,α-dimethylbenzyl)glycylalanineamide]",–,–,–,–,–,–,–,–,–,–,610,880,–,–,"Percentage animals protected from fibrillation ([3]; 88 mg/kg p.o. (one tenth of LD50), 10 min): 35 per cent; Percentage animals protected from fibrillation ([3]; 88 mg/kg p.o. (one tenth of LD50), 60 min): 10 per cent; Percentage animals protected from fibrillation ([3]; 610 mg/kg p.o. (LD 0.1), 10 min): 90 per cent; Percentage animals protected from fibrillation ([3]; 610 mg/kg p.o. (LD 0.1), 60 min): 45 per cent"
"CCN(CC)[C@@H](C)C(=O)N[C@@H](C)C(=O)NC(C)(C)c1ccccc1 [GEA 982, N^3,N^3 -diethyl-N^1 -(α,α-dimethylbenzyl)alanylalanineamide]",–,–,–,–,–,–,–,–,–,–,210,660,–,–,"Percentage animals protected from fibrillation ([3]; 66 mg/kg p.o. (one tenth of LD50), 10 min): 0 per cent; Percentage animals protected from fibrillation ([3]; 66 mg/kg p.o. (one tenth of LD50), 60 min): 0 per cent; Percentage animals protected from fibrillation ([3]; 210 mg/kg p.o. (LD 0.1), 10 min): 40 per cent; Percentage animals protected from fibrillation ([3]; 210 mg/kg p.o. (LD 0.1), 60 min): 15 per cent"
"CCN(CC)CC(=O)NCC(=O)Nc1ccccc1 [GEA 984, N,N-diethylglycylglycine anilide]",–,–,–,284 ± 29,211 ± 18,95 ± 9,–,–,0,0,–,> 1000,70,10,"Percentage animals protected from fibrillation ([3]; 1000 mg/kg p.o., 10 min): 75 per cent; Percentage animals protected from fibrillation ([3]; 1000 mg/kg p.o., 60 min): 0 per cent"
"CCN(CC)CC(=O)Nc1c(C)cccc1C [Lidocaine, 2-diethylamino-2', 6'-acetoxylidide, reference compound]",237 ± 35,176 ± 12,66 ± 7,–,–,–,–,–,–,–,150,–,–,–,Oral antiarrhythmic effectiveness [6]: not orally effective
